Patent US7625894B2, “Pyrrolo[2,3-d]Pyrimidines as Protein Tyrosine Kinase Inhibitors” (Novartis AG, priority 2004, dated 2009)

| melting point [°C] | Compound |
| --- | --- |
| > 300 | CNC(=O)c1ccc(-c2cc3c(NC)ncnc3[nH]2)cc1 [Example 21, N-Methyl-4-(4-methylamino-7H-pyrrolo[2,3-d]pyrimidin-6-yl)-benzamide] |
| 268 to 270 | CN(C)CCNc1ncnc2[nH]c(-c3ccc(C(=O)N4CCN(C)CC4)cc3)cc12 [Example 22, {4-[4-(2-Dimethylamino-ethylamino)-7H-pyrrolo[2,3-d]pyrimidin-6-yl]-phenyl}-(4-methyl-piperazin-1-yl)-methanone] |
| 175 to 177 | CCC(O)(CC)c1ccc(-c2cc3c(NCCCN4CCOCC4)ncnc3[nH]2)cc1 [Example 30] |

Further lines, the compound ahead of its results:

| Compound | melting point [°C] |
| --- | --- |
| CCCN(C)c1ncnc2[nH]c(-c3ccc(CN4CCN(C)CC4)cc3)cc12 [Example 1, methyl-{6-[4-(4-methyl-piperazin-1-ylmethyl)phenyl]-7H-pyrrolo[2,3-d]pyrimidin-4-yl}-propylamine] | 220 to 221 |
| CN1CCN(C(=O)c2ccc(-c3cc4c(N5CCN(C)CC5)ncnc4[nH]3)cc2)CC1 [Example 8, (4-Methyl-piperazin-1-yl)-{4-[4-(4-methyl-piperazin-1-yl)-7H-pyrrolo[2,3-d]pyrimidin-6-yl]-phenyl}-methanone] | 243 to 245 |
| CCCCOCc1ccc(-c2cc3c(N(C)C)ncnc3[nH]2)cc1 [Example 26, [6-(4-Butoxymethyl-phenyl)-7H-pyrrolo[2,3-d]pyrimidin-4-yl]-dimethyl-amine] | 186 to 188 |
| COCCN(CCOC)c1ncnc2[nH]c(-c3ccc(C(C)(C)O)cc3)cc12 [Example 31, 2-(4-{4-[Bis-(2-methoxy-ethyl)-amino]-7H-pyrrolo[2,3-d]pyrimidin-6-yl}-phenyl)-propan-2-ol] | 165 to 167 |
| CCC(O)(CC)c1ccc(-c2cc3c(N(CCOC)CCOC)ncnc3[nH]2)cc1 [Example 32, 3-(4-{4-[Bis-(2-methoxy-ethyl)-amino]-7H-pyrrolo[2,3-d]pyrimidin-6-yl}-phenyl)-pentan-3-ol] | 83 to 85 |
